Patent US11957687B2 (REGENERON PHARMACEUTICALS, INC., priority 2019, dated 2024)

molecular target: HSD17B13 (Homo sapiens (Human), UniProt Q7Z5P4); assay: HSD17B13 enzymatic inhibition assay (150 nM or 50 nM HSD17B13); assay type: biochemical; conditions: 50 nM HSD17B13; read-out: Inhibition of 50 nM of HSD17B13 IC50
Sequence (Q7Z5P4 other isoform, or with tags, fused parts or gaps): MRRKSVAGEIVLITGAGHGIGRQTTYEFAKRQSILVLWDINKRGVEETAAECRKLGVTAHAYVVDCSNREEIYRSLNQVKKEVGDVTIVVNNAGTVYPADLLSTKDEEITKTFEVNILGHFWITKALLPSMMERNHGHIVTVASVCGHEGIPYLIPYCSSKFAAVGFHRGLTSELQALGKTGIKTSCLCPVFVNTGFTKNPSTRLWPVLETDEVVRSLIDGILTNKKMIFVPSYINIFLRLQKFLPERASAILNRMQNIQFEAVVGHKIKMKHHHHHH

IC50 [µM] | SMILES
0.93 | CCCc1cc(C(F)(F)F)[nH]c(=O)c1C(=O)NC1c2ccc(Cl)cc2Oc2cc(Cl)ccc21 [Compound 210, N-(3,6-dichloro-9H-xanthen-9-yl)-2-oxo-4-propyl-6-(trifluoromethyl)-1,2-dihydropyridine-3-carboxamide]
0.87 | Cc1cc(C(=O)NC2c3ccc(Cl)cc3Oc3cccc(Cl)c32)c(=O)[nH]c1C(F)(F)F (centres unmarked) [Compound 211, N-(1,6-dichloro-9H-xanthen-9-yl)-5-methyl-2-oxo-6-(trifluoromethyl)-1,2-dihydropyridine-3-carboxamide]
> 10 | CCc1ccc(C(=O)NC2c3ccccc3-c3ccccc32)c(=O)[nH]1 [Compound 212, 6-ethyl-N-(9H-fluoren-9-yl)-2-oxo-1,2-dihydropyridine-3-carboxamide]
2.24 | Cc1cc(C(F)(F)F)[nH]c(=O)c1C(=O)NC1c2ccccc2-c2ccccc21 [Compound 213, N-(9H-fluoren-9-yl)-4-methyl-2-oxo-6-(trifluoromethyl)-1,2-dihydropyridine-3-carboxamide]
> 10 | Cc1c(C(F)(F)F)[nH]c(=O)c(C(=O)NC2c3ccccc3-c3ccccc32)c1C [Compound 214, N-(9H-fluoren-9-yl)-4,5-dimethyl-2-oxo-6-(trifluoromethyl)-1,2-dihydropyridine-3-carboxamide]
3.19 | O=C(NCc1ccc(Cl)cc1Oc1cccc(Cl)c1)c1ccc(C(F)(F)F)[nH]c1=O [Compound 216, N-(4-chloro-2-(3-chlorophenoxy)benzyl)-2-oxo-6-(trifluoromethyl)-1,2-dihydropyridine-3-carboxamide]
8.31 | O=C(NCC1c2ccccc2-c2ccccc21)c1ccc(C(F)(F)F)[nH]c1=O [Compound 217, N-((9H-fluoren-9-yl)methyl)-2-oxo-6-(trifluoromethyl)-1,2-dihydropyridine-3-carboxamide]
9.55 | Cc1ccc(C(C)NC(=O)c2ccc(C(F)(F)F)[nH]c2=O)cc1 (centres unmarked) [Compound 218]
> 10 | O=C(NC(c1ccc(Cl)cc1)c1ccncn1)c1ccc(C(F)(F)F)[nH]c1=O (centres unmarked) [Compound 219, N-((4-chlorophenyl)(pyrimidin-4-yl)methyl)-2-oxo-6-(trifluoromethyl)-1,2-dihydropyridine-3-carboxamide]
> 10 | O=C(NC(c1ccc(Cl)cc1)c1cncnc1)c1ccc(C(F)(F)F)[nH]c1=O (centres unmarked) [Compound 220, N-((4-chlorophenyl)(pyrimidin-5-yl)methyl)-2-oxo-6-(trifluoromethyl)-1,2-dihydropyridine-3-carboxamide]
6.4 | O=C(NC(c1ccccc1)c1cccc(=O)[nH]1)c1ccc(C(F)(F)F)[nH]c1=O (centres unmarked) [Compound 221, 2-oxo-N-((6-oxo-1,6-dihydropyridin-2-yl)(phenyl)methyl)-6-(trifluoromethyl)-1,2-dihydropyridine-3-carboxamide]
2.17 | CC(NC(=O)c1ccc(C(F)(F)F)[nH]c1=O)c1ccc(Cl)cc1Oc1cccc(Cl)c1 (centres unmarked) [Compound 222, N-(1-(4-chloro-2-(3-chlorophenoxy)phenyl)ethyl)-2-oxo-6-(trifluoromethyl)-1,2-dihydropyridine-3-carboxamide]
> 10 | O=C(Nc1cccc(O)c1)c1ccc(C(F)(F)F)[nH]c1=O [Compound 224, N-(3-hydroxyphenyl)-2-oxo-6-(trifluoromethyl)-1,2-dihydropyridine-3-carboxamide]
4.65 | CCc1cccc(NC(=O)c2ccc(C(F)(F)F)[nH]c2=O)c1 [Compound 225, N-(3-ethylphenyl)-2-oxo-6-(trifluoromethyl)-1,2-dihydropyridine-3-carboxamide]
8.05 | Cc1cccc(NC(=O)c2ccc(C(F)(F)F)[nH]c2=O)c1 [Compound 226, 2-oxo-N-(m-tolyl)-6-(trifluoromethyl)-1,2-dihydropyridine-3-carboxamide]
9.85 | O=C(Nc1cccc(Cl)c1)c1ccc(C(F)(F)F)[nH]c1=O [Compound 227, N-(3-chlorophenyl)-2-oxo-6-(trifluoromethyl)-1,2-dihydropyridine-3-carboxamide]
1.4 | O=C(Nc1cccc2cc(O)ccc12)c1ccc(C(F)(F)F)[nH]c1=O [Compound 229, N-(6-hydroxynaphthalen-1-yl)-2-oxo-6-(trifluoromethyl)-1,2-dihydropyridine-3-carboxamide]
0.03 | Cc1ccc2c(c1O)CCCC2NC(=O)c1ccc(C(F)(F)F)[nH]c1=O (centres unmarked) [Compound 231, N-(5-hydroxy-6-methyl-1,2,3,4-tetrahydronaphthalen-1-yl)-2-oxo-6-(trifluoromethyl)-1,2-dihydropyridine-3-carboxamide]
2.69 | COc1c(C)ccc2c1CCCC2NC(=O)c1ccc(C(F)(F)F)[nH]c1=O (centres unmarked) [Compound 232, N-(5-methoxy-6-methyl-1,2,3,4-tetrahydronaphthalen-1-yl)-2-oxo-6-(trifluoromethyl)-1,2-dihydropyridine-3-carboxamide]

IC50 [µM] | SMILES
1.32 | Cc1ccc2c(c1)C(NC(=O)c1ccc(C(F)(F)F)[nH]c1=O)CCO2 (centres unmarked) [Compound 233, N-(6-methylchroman-4-yl)-2-oxo-6-(trifluoromethyl)-1,2-dihydropyridine-3-carboxamide]
0.74 | Cc1ccc2c(c1)C(NC(=O)c1ccc(C(F)(F)F)[nH]c1=O)CCS2 (centres unmarked) [Compound 236, N-(6-methylthiochroman-4-yl)-2-oxo-6-(trifluoromethyl)-1,2-dihydropyridine-3-carboxamide]
0.49 | Cc1ccc2c(c1)C(NC(=O)c1ccc(C(F)(F)F)[nH]c1=O)CC2 (centres unmarked) [Compound 237, N-(6-methyl-2,3-dihydro-1H-inden-1-yl)-2-oxo-6-(trifluoromethyl)-1,2-dihydropyridine-3-carboxamide]
0.68 | Cc1ccc2c(c1)CCC2NC(=O)c1ccc(C(F)(F)F)[nH]c1=O (centres unmarked) [Compound 238, N-(5-methyl-2,3-dihydro-1H-inden-1-yl)-2-oxo-6-(trifluoromethyl)-1,2-dihydropyridine-3-carboxamide]
0.1 | COc1ccc2c(c1)Oc1cc(OC)ccc1C2NC(=O)c1cc(-c2ccccc2)c(C(F)(F)F)[nH]c1=O [Compound 239, N-(3,6-dimethoxy-9H-xanthen-9-yl)-2-oxo-5-phenyl-6-(trifluoromethyl)-1,2-dihydropyridine-3-carboxamide]
0.11 | COc1ccc2c(c1)Oc1cc(OC)ccc1C2NC(=O)c1cc(C)c(C(F)(F)F)[nH]c1=O [Compound 240, N-(3,6-dimethoxy-9H-xanthen-9-yl)-5-methyl-2-oxo-6-(trifluoromethyl)-1,2-dihydropyridine-3-carboxamide]
0.07 | COc1ccc2c(c1)Sc1ccccc1C2NC(=O)c1ccc(C(F)(F)F)[nH]c1=O (centres unmarked) [Compound 242, N-(3-methoxy-9H-thioxanthen-9-yl)-2-oxo-6-(trifluoromethyl)-1,2-dihydropyridine-3-carboxamide]
2.16 | COc1ccccc1C(NC(=O)c1ccc(C(F)(F)F)[nH]c1=O)c1cccc(C)c1 (centres unmarked) [Compound 243, N-((2-methoxyphenyl)(m-tolyl)methyl)-2-oxo-6-(trifluoromethyl)-1,2-dihydropyridine-3-carboxamide]
0.29 | COc1ccccc1C(NC(=O)c1ccc(C(F)(F)F)[nH]c1=O)c1ccc(C)cc1 (centres unmarked) [Compound 244, N-((2-methoxyphenyl)(p-tolyl)methyl)-2-oxo-6-(trifluoromethyl)-1,2-dihydropyridine-3-carboxamide]
1.08 | CSc1ccccc1C(NC(=O)c1ccc(C(F)(F)F)[nH]c1=O)c1cccc(C)c1 (centres unmarked) [Compound 245, N-((2-(methylthio)phenyl)(m-tolyl)methyl)-2-oxo-6-(trifluoromethyl)-1,2-dihydropyridine-3-carboxamide]
0.3 | CSc1ccccc1C(NC(=O)c1ccc(C(F)(F)F)[nH]c1=O)c1ccc(C)cc1 (centres unmarked) [Compound 246, N-((2-(methylthio)phenyl)(p-tolyl)methyl)-2-oxo-6-(trifluoromethyl)-1,2-dihydropyridine-3-carboxamide]
0.93 | CSc1c(C)cccc1C(NC(=O)c1ccc(C(F)(F)F)[nH]c1=O)c1ccccc1 (centres unmarked) [Compound 247, N-((3-methyl-2-(methylthio)phenyl)(phenyl)methyl)-2-oxo-6-(trifluoromethyl)-1,2-dihydropyridine-3-carboxamide]
0.3 | Cc1ccc2c(c1)C(NC(=O)c1ccc(C(F)(F)F)[nH]c1=O)c1ccccc1S2 (centres unmarked) [Compound 248, N-(2-methyl-9H-thioxanthen-9-yl)-2-oxo-6-(trifluoromethyl)-1,2-dihydropyridine-3-carboxamide]
0.39 | O=C(NC1c2ccccc2Sc2ccc(Cl)cc21)c1ccc(C(F)(F)F)[nH]c1=O (centres unmarked) [Compound 249, N-(2-chloro-9H-thioxanthen-9-yl)-2-oxo-6-(trifluoromethyl)-1,2-dihydropyridine-3-carboxamide]
0.06 | O=C(NC1c2ccc(Cl)cc2Sc2cc(Cl)ccc21)c1ccc(C(F)(F)F)[nH]c1=O [Compound 250, N-(3,6-dichloro-9H-thioxanthen-9-yl)-2-oxo-6-(trifluoromethyl)-1,2-dihydropyridine-3-carboxamide]
0.65 | O=C(NC1c2ccc(Cl)cc2Sc2cccc(Cl)c21)c1ccc(C(F)(F)F)[nH]c1=O (centres unmarked) [Compound 251, N-(1,6-dichloro-9H-thioxanthen-9-yl)-2-oxo-6-(trifluoromethyl)-1,2-dihydropyridine-3-carboxamide]
4.27 | Cc1ccc2c(c1)Sc1cccc(C)c1C2NC(=O)c1ccc(C(F)(F)F)[nH]c1=O (centres unmarked) [Compound 253, N-(1,6-dimethyl-9H-thioxanthen-9-yl)-2-oxo-6-(trifluoromethyl)-1,2-dihydropyridine-3-carboxamide]
> 10 | O=C(NC1c2ccc(Cl)cc2Oc2cccc(Cl)c21)c1ccc[nH]c1=O (centres unmarked) [Compound 254, N-(1,6-dichloro-9H-xanthen-9-yl)-2-oxo-1,2-dihydropyridine-3-carboxamide]
> 10 | O=C(NC1c2ccc(Cl)cc2Oc2cc(Cl)ccc21)c1ccc[nH]c1=O [Compound 255, N-(3,6-dichloro-9H-xanthen-9-yl)-2-oxo-1,2-dihydropyridine-3-carboxamide]
